Measured values reported in PMC1887769 (The Journal of General Physiology, 1998).

Molecular target: T1, αβγXENaC (Xenopus ENaC) (Xenopus laevis, UniProt P51167+P51169+P51171)
T1 sequence (P51167 1-632): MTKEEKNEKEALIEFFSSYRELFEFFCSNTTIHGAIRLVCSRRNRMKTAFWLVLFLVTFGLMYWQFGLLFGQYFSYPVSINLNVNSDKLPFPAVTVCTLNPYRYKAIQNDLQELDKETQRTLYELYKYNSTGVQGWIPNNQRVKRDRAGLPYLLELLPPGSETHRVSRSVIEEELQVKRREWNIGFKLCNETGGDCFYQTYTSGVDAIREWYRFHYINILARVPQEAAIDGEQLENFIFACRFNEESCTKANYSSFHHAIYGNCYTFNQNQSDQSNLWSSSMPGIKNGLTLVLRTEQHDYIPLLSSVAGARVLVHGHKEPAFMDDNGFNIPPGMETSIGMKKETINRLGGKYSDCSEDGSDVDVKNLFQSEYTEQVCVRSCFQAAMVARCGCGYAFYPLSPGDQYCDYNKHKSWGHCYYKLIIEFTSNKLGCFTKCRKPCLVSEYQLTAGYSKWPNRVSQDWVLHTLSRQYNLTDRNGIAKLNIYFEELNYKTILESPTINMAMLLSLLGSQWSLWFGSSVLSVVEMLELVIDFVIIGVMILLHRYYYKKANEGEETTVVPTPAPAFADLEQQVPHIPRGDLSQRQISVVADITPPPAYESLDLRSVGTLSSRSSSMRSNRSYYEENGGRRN
T1 sequence (P51169 1-647): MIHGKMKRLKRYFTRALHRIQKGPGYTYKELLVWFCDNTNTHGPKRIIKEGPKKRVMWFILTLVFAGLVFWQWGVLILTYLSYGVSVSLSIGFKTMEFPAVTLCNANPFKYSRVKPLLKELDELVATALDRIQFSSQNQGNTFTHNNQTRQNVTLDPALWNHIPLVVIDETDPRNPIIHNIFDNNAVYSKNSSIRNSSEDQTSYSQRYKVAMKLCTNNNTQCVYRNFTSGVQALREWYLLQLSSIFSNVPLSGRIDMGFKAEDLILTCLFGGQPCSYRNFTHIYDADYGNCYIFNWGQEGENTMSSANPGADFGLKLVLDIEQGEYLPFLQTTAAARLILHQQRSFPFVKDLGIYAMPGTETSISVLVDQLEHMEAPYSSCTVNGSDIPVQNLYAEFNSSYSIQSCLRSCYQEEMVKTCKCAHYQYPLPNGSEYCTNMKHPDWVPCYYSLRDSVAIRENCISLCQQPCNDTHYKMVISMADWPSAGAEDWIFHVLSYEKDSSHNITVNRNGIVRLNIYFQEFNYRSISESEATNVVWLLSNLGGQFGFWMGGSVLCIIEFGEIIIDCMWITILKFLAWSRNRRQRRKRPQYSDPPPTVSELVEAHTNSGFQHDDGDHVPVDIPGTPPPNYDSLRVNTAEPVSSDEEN
T1 sequence (P51171 1-660): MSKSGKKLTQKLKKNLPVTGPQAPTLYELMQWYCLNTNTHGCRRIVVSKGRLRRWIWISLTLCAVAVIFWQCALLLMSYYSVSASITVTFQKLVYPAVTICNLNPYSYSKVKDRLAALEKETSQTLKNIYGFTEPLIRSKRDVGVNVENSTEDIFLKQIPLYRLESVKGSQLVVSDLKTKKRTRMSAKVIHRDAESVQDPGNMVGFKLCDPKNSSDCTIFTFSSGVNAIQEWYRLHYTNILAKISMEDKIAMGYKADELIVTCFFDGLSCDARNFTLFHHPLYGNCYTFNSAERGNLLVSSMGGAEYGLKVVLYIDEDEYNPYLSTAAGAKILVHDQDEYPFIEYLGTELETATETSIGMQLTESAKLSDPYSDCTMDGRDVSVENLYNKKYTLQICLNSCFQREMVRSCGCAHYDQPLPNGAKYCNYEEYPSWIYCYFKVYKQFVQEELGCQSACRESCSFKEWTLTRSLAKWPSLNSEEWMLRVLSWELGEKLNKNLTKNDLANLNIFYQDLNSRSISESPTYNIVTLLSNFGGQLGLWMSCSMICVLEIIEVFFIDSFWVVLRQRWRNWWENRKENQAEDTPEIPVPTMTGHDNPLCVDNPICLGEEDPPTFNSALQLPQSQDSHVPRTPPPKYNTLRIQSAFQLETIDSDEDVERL
Assay: two-electrode voltage clamp of Na+ current in oocytes
Assay type: cell-based

Compound `N=C(N)NC(=O)c1nc(Cl)c(N)nc1N` [amiloride] has a Ki of 550 ± 30 nM.
